Earlier results, collected in patent US20240139293A1, “Compositions and Methods for Enhancing Anti-Viral Therapies” (XORTX THERAPEUTICS, INC., priority 2021, published 2024).

Tested on: SARS-CoV-2
Settings: cited study: SARS-CoV-2 replication in vivo and in vitro

In the case of `CCCN(CCC)S(=O)(=O)c1ccc(C(=O)O)cc1` [probenecid], the “viral load due to Coronavirus” value is listed as “can decrease viral load”.
